# B1: TP0037, D-lactate dehydrogenase of Treponema pallidum (enzyme, UniProt O83080 1-331, looked up)
# chain: MRCVVFNLREEEAPYVEKWKQSHPGVVVDTYEEPLTAKNKELLKGYEGLVVMQFLAMEDEVYDYMGACKLKVLSTRTAGFDMYNATLLKKHGIRLTNVPSYSPNAIGEYALAAALQLTRHAREIETFVRKRDFRWQKPILSKELRCSRVGILGTGRIGQAAARLFKGVGAQVVGFDPYPNDAAKEWLTYVSMDELLSTSDVISLHMPATKDSHHLINAKTIAQMKDGVYLVNTARGAVIDSQALLDSLDKGKIAGAALDAYEFEGPYIPKDNGNNPITDTVYARLVAHERIIYTPHIAFYTETAIENMVFNSLDACTTVLRGEPCAAEIKL
# notes: TP0037 (D-lactate dehydrogenase), Treponema pallidum, amino acid residues 1 to 331, amplified from genomic DNA; called full-length in the results; also called rTP0037; TpD-LDH; source: E. coli BL21(DE3), purified to apparent homogeneity
# Tests used:
# [1] = biological target: T1, TP0037 (TpD-LDH; rTP0037) (Treponema pallidum, UniProt O83080); assay: colorimetric NADH-formation kit assay (A575/A605); assay type: biochemical; conditions: co-substrate NAD+, 37°C, 30 min
# T1 construct: gene ldhD; full-length, residues 1-331, in pProEX-HTb (vector-derived tag); monomer 39,190 g/mol, homodimer in solution
# [2] = biological target: the molecule itself; assay: static light scattering; Dynapro Nanostar, 25°C, storage buffer (20 mM HEPES pH 7.5, 100 mM NaCl, 2 mM BOG), 1.54 mg/ml, three technical replicates; DLS monitored simultaneously
molecule,measurement,setting,value
C[C@H](O)C(=O)O [L-lactate],colorimetric NADH-formation kit assay (A575/A605),[1]; very weak substrate,only about one-thousandth of the activity was observed when using L-lactate as the substrate
C[C@@H](O)C(=O)O [D-lactate],colorimetric NADH-formation kit assay (A575/A605),[1],"monitor the amount of NADH formation in the presence of NAD^+, D-lactate, and the enzyme"
B1,stoichiometry N,[2],2
